This note sets out measurements from patent US20170151299A1, “EXTRACTS OF SANTOLINA CHAMAECYPARISSUS” (priority 2014, published 2017).

Values after ≈ are worked out from the molar mass of the structure shown. Like-named read-outs stand apart in the source and are kept apart here.

What is called inhibition is the relative decrease from the control value, in per cent.

One series concerns Aspergillus niger. The series is described as follows: 96-well microtiter plate growth inhibition assay. The series is classed as cell-based. The following applies: for inhibition at 200000 µg/mL (stock): 200 mg/mL sample at 2% in well (positive standard 0.4%). As for the experimental part:
(§1) Antimicrobial activity of the crude extracts was determined using a 96-well microtiter plate assay based on growth inhibition. The assay was performed on […] different microbial strains, chosen according to the European Pharmacopoeia (ATCC references): Staphylococcus aureus ([…]), Escherichia coli (gram-negative bacteria), Pseudomonas aeruginosa ([…]), Propionibacterium acnes (anaerobic gram-positive bacteria), Aspergillus niger (fungus) and Candida albicans (yeast).
(§2) Samples for antimicrobial assay were prepared as follows: crude extracts were diluted at 200 mg/mL in a mixture of appropriate solvents, e.g. ethanol and water (60:40 v/v) or pure dimethylsulfoxide. After solubilization, the solutions were filtrated on 0.45 μm syringe filters.
(§3) The assay was performed for each strain according as follows: samples (at 200 mg/mL) were first diluted to 4% in water, then to 2% and 0.2% in wells. Final concentrations were also 0.4 and 0.04% of crude extracts in wells. Each concentration was assessed in replicate with one supplementary control well containing no microbial strain. For the assay at 2%, samples were mixed up in the wells with growth medium (95 μL) and microbial suspension (representing an absorbance of 0.6 for C. albicans, S. aureus and P. aeruginosa and 40 spores/μL for A. niger). For the assay at 0.2%, samples were first diluted to 0.2% with water in the wells. Negative controls constituted of the solvent mixture used to prepare the sample solutions, and positive controls with a synthetic preservative (methyl-paraben and/or phenoxyethanol, positive standard) were also prepared. Results were also compared with those obtained using a commercial natural preservative (commercial preservative). The 96-well plates were incubated at 25° C.
(§4) The absorbance was read for each plate at 620 nm 24, 48 and 72 hours after the beginning of the incubation to evaluate the growth of each microorganism in presence of crude extracts.
(§5) The results were expressed as a percentage of growth inhibition by the samples for each microorganism.

The next series has as its system Candida albicans. The series is described as follows: 96-well microtiter plate growth inhibition assay. In kind it is cell-based. The following applies: for inhibition: 200 mg/mL sample at 2% in well (positive standard 0.4%). The protocol: as §1, §2, §3, §4, §5
The next series has as its system Pseudomonas aeruginosa. Description: 96-well microtiter plate growth inhibition assay. In kind it is cell-based. Conditions: for inhibition: 200 mg/mL sample at 2% in well (positive standard 0.4%). As for the experimental part: as §1, §2, §3, §4, §5
In the next series the test system is Staphylococcus aureus. Description: 96-well microtiter plate growth inhibition assay. The series is classed as cell-based. The following applies: for inhibition at 200000 µg/mL (stock): 200 mg/mL sample at 2% in well (positive standard 0.4%). The protocol:
as §1, §2, §3, §4, §5

The next series relates to Propionibacterium acnes. Description: Minimum inhibitory concentration (MIC). The series is classed as cell-based. Conditions: Cutibacterium acnes; Propionibacterium acnes (anaerobic); read-out: MIC (mg/mL) P. acnes. As for the experimental part:
In a second step for the optimized extract of S. chamaecyparissus, the minimum inhibitory concentration (MIC) and the minimum bactericidal concentration (MBC) were also measured including E. coli and P. acnes. […] The MBC is the lowest concentration of antibacterial agent required to kill a particular bacterium, that is to say to reduce the viability of the initial bacterial inoculum by >99.9%. The dilutions were run in triplicate for the MIC and MBC test. At the end of the incubation, the tubes were read for the growth inhibition and then the MBC was determined by sampling all the macroscopically clear tubes and the first turbid tube in the series.
The results were expressed in mg/mL of extract.
The optimized extract was then assessed for its antimicrobial activity and more particularly in order to determine the minimum inhibitory concentration for Propionibacterium acnes (gram-positive bacteria). Methyl paraben and phenoxyethanol, as universal antimicrobial agents, were used as positive control. Due to the a higher active substance (I) content, the impact on the antimicrobial activity and more particularly on an anaerobic bacteria was evaluated.

Series [1] is classed as physicochemical. The protocol:
The pure compound appeared to be unstable once isolated, and particularly in aqueous and acid conditions. Since antimicrobial assays were performed in water, its antimicrobial activity could not be evaluated as for crude extracts or plant fractions. Thus, the inventors tried to establish a relationship between antimicrobial activity and active substance content in crude extracts.

Where [2] appears, read: 48 h, read-out: Growth inhibition (%) 48 h, 2%.
[3] abbreviates: 72 h, read-out: Growth inhibition (%) 72 h, 2%.
The mark [4] stands for this setting: medium inhibition at 2%, Table 2.
Where [5] appears, read: 24 h, read-out: Growth inhibition (%) 24 h, 2%.

With `COC(=O)c1ccc(O)cc1` [Positive standard, Methylparaben], the inhibition at 200000 µg/mL (stock) turned out to be 100% in the series on Aspergillus niger (setting [2]), 100% with Aspergillus niger (setting [3]), 80% in the series with Staphylococcus aureus (setting [5]) and 93% with Staphylococcus aureus (setting [2]). In addition, the Review entry in the series on Aspergillus niger (setting [4]) is “+++ (medium inhibition greater or equal to 90%)”; in the series on Candida albicans (setting [4]), “+++ (medium inhibition greater or equal to 90%)”; in the series with Pseudomonas aeruginosa (setting [4]), “++ (medium inhibition comprised between 70% and 90%)”; in the series on Staphylococcus aureus (setting [4]) it was “++ (medium inhibition comprised between 70% and 90%)”. Further, the inhibition with Candida albicans (setting [5]) is 99%; with Candida albicans (setting [2]), 100%; in the series on Pseudomonas aeruginosa (setting [2]), 75%; in the series with Pseudomonas aeruginosa (setting [3]), 81%. Moreover, the MIC in the series on Propionibacterium acnes was found to be 2.53 mg/mL (≈ 16.6 mM).

For the compound `CC#CC#C/C=C1/C=CC2(OC=CC2OC(C)=O)O1` (centres unmarked) [pure compound, 1,6-dioxaspiro[4,4]nona-2,8-dien-4-ol,7-(2,4-hexadiyn-1-ylidene)-,4-acetate], in series [1], the stability once isolated result is “unstable”.
